Source: patent US20250312462A1, “PAK1 DEGRADERS AND METHODS OF USE THEREOF” (INSTITUTE FOR CANCER RESEARCH D/B/A THE RESEARCH INSTITUTE …, priority 2022, published 2025)

Tests used:
[1] = molecular target: T1, PFCDPK1(P. falciparum) (Plasmodium falciparum, UniProt P62344); experiment: KINOMEscan; format: binding; details: read-out: Percent Control
T1 construct: purchased DiscoverX

[2] = molecular target: NDR2 (Homo sapiens, UniProt Q9Y2H1); experiment: KINOMEscan; details: read-out: Percent Control
NDR2, sequence (Q9Y2H1 whole entry): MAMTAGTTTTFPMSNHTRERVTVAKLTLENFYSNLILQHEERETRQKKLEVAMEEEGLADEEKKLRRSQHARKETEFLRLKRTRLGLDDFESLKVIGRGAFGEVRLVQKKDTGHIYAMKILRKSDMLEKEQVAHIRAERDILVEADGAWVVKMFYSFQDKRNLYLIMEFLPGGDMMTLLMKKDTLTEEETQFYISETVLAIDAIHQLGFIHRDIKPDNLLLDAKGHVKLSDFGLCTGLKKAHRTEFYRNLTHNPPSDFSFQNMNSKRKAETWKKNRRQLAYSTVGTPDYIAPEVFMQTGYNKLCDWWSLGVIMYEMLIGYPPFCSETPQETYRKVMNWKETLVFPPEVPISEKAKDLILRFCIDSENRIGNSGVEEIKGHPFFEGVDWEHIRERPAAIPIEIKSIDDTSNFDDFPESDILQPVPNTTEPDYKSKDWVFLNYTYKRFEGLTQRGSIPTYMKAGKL
Method: (§1) The kinase engagement assay (KINOMEscan®) was performed by DiscoverX assessing binding abilities toward a set of kinases.

[3] = molecular target: RSK4(Kin.Dom.2-C-terminal) (Homo sapiens, UniProt Q9UK32); experiment: KINOMEscan; details: read-out: Percent Control
Method: as §1

[4] = molecular target: NLK (Homo sapiens, UniProt Q9UBE8); experiment: KINOMEscan; details: read-out: Percent Control
Method: as §1

[5] = molecular target: PRKG1 (Homo sapiens, UniProt Q13976); experiment: KINOMEscan; details: read-out: Percent Control
Method: as §1

[6] = molecular target: CSNK1D (Homo sapiens, UniProt P48730); experiment: KINOMEscan; details: read-out: Percent Control
Method: as §1

[7] = molecular target: TIE1 (Homo sapiens, UniProt P35590); experiment: KINOMEscan; details: read-out: Percent Control
Method: as §1

[8] = molecular target: MRCKA (Homo sapiens, UniProt Q5VT25); experiment: KINOMEscan; details: read-out: Percent Control
Method: as §1

[9] = molecular target: TRKA (Homo sapiens, UniProt P04629); experiment: KINOMEscan; details: read-out: Percent Control
Method: as §1

[10] = molecular target: TSSK1B (Homo sapiens, UniProt Q9BXA7); experiment: KINOMEscan; details: read-out: Percent Control
TSSK1B, sequence (Q9BXA7 whole entry): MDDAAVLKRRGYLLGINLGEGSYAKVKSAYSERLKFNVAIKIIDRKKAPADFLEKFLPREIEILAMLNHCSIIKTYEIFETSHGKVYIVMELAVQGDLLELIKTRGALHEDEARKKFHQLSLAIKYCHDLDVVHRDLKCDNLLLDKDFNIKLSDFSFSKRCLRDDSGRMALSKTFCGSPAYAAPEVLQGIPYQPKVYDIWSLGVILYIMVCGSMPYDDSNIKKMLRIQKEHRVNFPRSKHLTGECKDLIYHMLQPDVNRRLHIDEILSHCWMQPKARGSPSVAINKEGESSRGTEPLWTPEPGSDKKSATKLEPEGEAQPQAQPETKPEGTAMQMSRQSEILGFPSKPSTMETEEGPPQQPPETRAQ
Method: as §1

[11] = molecular target: GRK2 (Homo sapiens, UniProt P25098); experiment: KINOMEscan; details: read-out: Percent Control
Method: as §1

[12] = molecular target: PIM3 (Homo sapiens, UniProt Q86V86); experiment: KINOMEscan; details: read-out: Percent Control
Method: as §1

[13] = molecular target: DCAMKL3 (Homo sapiens, UniProt Q9C098); experiment: KINOMEscan; details: read-out: Percent Control
Method: as §1

[14] = molecular target: CDK8 (Homo sapiens, UniProt P49336); experiment: KINOMEscan; details: read-out: Percent Control
Method: as §1

[15] = molecular target: LRRK2 (Homo sapiens, UniProt Q5S007); experiment: KINOMEscan; details: read-out: Percent Control
LRRK2, sequence (Q5S007 whole entry): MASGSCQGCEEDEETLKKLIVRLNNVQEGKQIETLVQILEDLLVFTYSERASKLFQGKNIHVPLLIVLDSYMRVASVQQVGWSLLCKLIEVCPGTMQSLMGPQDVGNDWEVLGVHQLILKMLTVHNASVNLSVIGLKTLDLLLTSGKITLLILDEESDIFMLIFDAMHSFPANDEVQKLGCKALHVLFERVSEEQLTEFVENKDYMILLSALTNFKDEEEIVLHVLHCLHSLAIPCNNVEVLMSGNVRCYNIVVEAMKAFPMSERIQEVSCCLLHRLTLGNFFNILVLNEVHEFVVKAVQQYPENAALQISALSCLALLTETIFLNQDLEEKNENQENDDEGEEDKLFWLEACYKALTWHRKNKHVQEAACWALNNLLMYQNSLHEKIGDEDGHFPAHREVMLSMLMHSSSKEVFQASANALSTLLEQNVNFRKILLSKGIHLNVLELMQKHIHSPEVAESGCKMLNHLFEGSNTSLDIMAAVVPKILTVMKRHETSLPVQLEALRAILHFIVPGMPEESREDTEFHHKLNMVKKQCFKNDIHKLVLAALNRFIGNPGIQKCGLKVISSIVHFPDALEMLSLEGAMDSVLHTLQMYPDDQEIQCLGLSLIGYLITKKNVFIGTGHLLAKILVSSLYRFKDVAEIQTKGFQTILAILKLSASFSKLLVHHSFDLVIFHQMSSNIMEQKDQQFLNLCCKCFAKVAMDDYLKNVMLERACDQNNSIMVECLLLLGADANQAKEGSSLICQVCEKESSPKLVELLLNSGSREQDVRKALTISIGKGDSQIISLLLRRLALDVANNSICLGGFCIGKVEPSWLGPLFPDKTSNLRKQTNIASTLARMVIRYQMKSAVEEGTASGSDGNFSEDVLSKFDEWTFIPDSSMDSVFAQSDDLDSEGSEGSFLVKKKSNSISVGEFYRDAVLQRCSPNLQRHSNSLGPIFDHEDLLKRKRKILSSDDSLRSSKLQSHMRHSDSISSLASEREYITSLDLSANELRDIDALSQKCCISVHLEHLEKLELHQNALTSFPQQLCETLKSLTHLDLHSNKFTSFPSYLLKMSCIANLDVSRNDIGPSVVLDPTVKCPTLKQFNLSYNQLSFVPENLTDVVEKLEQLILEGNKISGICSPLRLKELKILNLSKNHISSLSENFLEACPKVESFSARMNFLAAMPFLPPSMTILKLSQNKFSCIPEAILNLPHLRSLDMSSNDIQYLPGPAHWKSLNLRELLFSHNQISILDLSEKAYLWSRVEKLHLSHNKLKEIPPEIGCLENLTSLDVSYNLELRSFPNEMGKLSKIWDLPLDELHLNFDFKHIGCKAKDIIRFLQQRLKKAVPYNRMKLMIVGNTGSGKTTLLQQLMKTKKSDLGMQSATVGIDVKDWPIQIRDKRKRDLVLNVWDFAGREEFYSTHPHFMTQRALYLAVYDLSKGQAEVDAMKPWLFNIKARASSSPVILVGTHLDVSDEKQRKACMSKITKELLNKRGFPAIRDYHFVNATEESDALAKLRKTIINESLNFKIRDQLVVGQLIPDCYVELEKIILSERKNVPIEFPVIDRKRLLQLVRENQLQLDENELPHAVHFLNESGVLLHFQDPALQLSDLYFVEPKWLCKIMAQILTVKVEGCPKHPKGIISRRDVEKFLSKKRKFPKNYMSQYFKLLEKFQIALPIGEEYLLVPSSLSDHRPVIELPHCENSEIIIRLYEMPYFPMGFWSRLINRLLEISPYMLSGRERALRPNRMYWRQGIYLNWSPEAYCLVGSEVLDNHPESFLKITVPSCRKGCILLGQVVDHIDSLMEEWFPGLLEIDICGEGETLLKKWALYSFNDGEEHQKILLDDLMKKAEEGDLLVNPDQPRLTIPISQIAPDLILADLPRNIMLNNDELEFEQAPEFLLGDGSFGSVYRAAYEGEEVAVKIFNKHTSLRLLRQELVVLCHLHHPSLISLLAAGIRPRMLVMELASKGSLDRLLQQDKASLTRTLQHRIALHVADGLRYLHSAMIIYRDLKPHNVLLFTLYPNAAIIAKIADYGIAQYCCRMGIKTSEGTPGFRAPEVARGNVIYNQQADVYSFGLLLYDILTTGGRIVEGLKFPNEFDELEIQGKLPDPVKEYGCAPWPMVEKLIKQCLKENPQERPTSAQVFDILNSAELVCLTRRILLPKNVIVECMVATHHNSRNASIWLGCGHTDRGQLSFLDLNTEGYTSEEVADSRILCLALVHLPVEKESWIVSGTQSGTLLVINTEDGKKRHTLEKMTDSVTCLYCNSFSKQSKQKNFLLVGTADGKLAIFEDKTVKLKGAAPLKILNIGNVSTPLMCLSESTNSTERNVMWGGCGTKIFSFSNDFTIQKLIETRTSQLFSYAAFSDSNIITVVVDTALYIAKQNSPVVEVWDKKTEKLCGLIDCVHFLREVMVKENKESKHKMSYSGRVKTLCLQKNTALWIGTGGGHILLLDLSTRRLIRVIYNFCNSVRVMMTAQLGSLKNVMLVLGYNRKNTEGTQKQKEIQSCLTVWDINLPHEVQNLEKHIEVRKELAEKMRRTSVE
Method: as §1

[16] = molecular target: FGR (Homo sapiens, UniProt P09769); experiment: KINOMEscan; details: read-out: Percent Control
Method: as §1

[17] = molecular target: ULK2 (Homo sapiens, UniProt Q8IYT8); experiment: KINOMEscan; details: read-out: Percent Control
Method: as §1

[18] = molecular target: AKT1 (Homo sapiens, UniProt P31749); experiment: KINOMEscan; details: read-out: Percent Control
Method: as §1

[19] = molecular target: SgK110 (Homo sapiens, UniProt P0C264); experiment: KINOMEscan; details: read-out: Percent Control
Method: as §1

[20] = molecular target: YSK1 (Homo sapiens, UniProt O00506); experiment: KINOMEscan; details: read-out: Percent Control
Method: as §1

[21] = molecular target: KIT(L576P) (Homo sapiens, UniProt P10721, L576P); experiment: KINOMEscan; details: read-out: Percent Control
Method: as §1

[22] = molecular target: KIT(V559D, T670I) (Homo sapiens, UniProt P10721, T670I/V559D); experiment: KINOMEscan; details: read-out: Percent Control
Method: as §1

[23] = molecular target: ABL1(T315I)-nonphosphorylated (Homo sapiens, UniProt P00519, T315I); experiment: KINOMEscan; details: read-out: Percent Control
Method: as §1

[24] = molecular target: MST4 (Homo sapiens, UniProt Q9P289); experiment: KINOMEscan; details: read-out: Percent Control
Method: as §1

[25] = molecular target: NDR1 (Homo sapiens, UniProt Q15208); experiment: KINOMEscan; details: read-out: Percent Control
Method: as §1

[26] = molecular target: SRC (Homo sapiens, UniProt P12931); experiment: KINOMEscan; details: read-out: Percent Control
Method: as §1

[27] = molecular target: CSF1R (Homo sapiens, UniProt P07333); experiment: KINOMEscan; details: read-out: Percent Control
CSF1R, sequence (P07333 20-972): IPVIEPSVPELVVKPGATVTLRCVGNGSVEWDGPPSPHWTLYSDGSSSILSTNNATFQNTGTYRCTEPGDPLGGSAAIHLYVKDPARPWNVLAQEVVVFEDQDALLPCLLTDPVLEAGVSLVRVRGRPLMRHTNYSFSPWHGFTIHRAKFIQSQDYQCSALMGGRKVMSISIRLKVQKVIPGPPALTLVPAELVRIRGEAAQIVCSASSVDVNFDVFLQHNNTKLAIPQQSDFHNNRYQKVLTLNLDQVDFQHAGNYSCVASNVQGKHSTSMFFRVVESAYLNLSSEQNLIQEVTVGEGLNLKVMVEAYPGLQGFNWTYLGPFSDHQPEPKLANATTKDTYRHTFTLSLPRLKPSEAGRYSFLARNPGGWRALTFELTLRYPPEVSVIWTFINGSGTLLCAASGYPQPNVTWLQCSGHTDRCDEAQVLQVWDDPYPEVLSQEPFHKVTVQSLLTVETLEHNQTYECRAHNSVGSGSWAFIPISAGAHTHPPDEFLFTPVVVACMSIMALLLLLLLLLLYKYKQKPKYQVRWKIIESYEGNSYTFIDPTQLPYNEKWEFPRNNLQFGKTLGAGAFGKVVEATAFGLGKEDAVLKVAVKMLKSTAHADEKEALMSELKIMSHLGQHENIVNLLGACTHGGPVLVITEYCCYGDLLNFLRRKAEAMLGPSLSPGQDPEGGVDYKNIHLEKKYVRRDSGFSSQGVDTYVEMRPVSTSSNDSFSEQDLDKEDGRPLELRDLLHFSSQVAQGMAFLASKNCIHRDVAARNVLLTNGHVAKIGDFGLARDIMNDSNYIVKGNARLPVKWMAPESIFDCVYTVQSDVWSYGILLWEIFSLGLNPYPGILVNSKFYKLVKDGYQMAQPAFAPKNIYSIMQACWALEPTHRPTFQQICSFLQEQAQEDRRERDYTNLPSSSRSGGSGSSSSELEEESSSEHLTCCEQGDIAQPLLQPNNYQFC
Method: as §1

[28] = molecular target: ERN1 (Homo sapiens, UniProt O75460); experiment: KINOMEscan; details: read-out: Percent Control
Method: as §1

[29] = molecular target: MKNK2 (Homo sapiens, UniProt Q9HBH9); experiment: KINOMEscan; details: read-out: Percent Control
Method: as §1

[30] = molecular target: PIK3CA(H1047Y) (Homo sapiens, UniProt P42336, H1047Y); experiment: KINOMEscan; details: read-out: Percent Control
Method: as §1

[31] = molecular target: PRKCD (Homo sapiens, UniProt Q05655); experiment: KINOMEscan; details: read-out: Percent Control
Method: as §1

[32] = molecular target: ERBB2 (Homo sapiens, UniProt P04626); experiment: KINOMEscan; details: read-out: Percent Control
Method: as §1

[33] = molecular target: PAK1 (Homo sapiens, UniProt Q13153); experiment: PAK1 degradation in MCF7 and OVCAR3 cells, immunoblot; format: cell-based; design: endogenous in cells; host or cells: MCF7, OVCAR3
PAK1, sequence (Q13153 whole entry): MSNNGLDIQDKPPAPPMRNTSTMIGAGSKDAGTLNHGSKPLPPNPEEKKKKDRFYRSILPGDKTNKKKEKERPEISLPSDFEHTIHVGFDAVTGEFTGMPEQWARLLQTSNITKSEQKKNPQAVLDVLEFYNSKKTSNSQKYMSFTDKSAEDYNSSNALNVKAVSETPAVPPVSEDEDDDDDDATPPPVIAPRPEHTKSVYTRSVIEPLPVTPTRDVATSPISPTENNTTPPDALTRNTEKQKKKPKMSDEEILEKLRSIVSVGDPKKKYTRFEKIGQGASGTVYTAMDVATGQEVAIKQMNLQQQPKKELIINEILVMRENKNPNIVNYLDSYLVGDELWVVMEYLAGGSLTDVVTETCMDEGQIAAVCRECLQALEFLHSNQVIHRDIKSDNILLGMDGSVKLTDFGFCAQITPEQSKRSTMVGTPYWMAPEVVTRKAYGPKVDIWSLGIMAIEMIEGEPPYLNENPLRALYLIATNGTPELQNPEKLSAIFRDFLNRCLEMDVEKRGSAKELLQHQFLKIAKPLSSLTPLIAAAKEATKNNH
Method: Protein lysates were harvested at the times specified.
Cell lysates were obtained by centrifugation at 13,500 rpm for 15 minutes at 4° C. BCA protein assay (Thermo Scientific) was used to determine protein concentration then equal amounts of total proteins were separated by SDS-PAGE (Bio-Rad) and transferred to PVDF membrane (Thermo Scientific) at 100V for 2 hours. Membranes were blocked in 5% (w/v) non-fat dry milk in tris-buffered saline with 0.1% Tween-20 (TBS-T) for 1 hour and incubated with primary antibody at 4° C. for overnight. Membranes were washed with TBS-T on the next day and incubated with HRP-conjugated secondary antibodies (Millipore) at room temperature for 1 hour and exposed to films after washing.

Molecule `O=C1CCC(N2C(=O)c3cccc(NCCCCCCCCNC(=O)N4CC[C@H](NC5=Nc6cc(F)ccc6N(CC(F)F)c6ccc(Cl)cc65)C4)c3C2=O)C(=O)N1` (stereo partly drawn) [BJG-05-039, (3S)-3-((2-Chloro-5-(2,2-difluoroethyl)-8-fluoro-5H-dibenzo[b,e][1,4]diazepin-11-yl)amino)-N-(8-((2-(2,6-dioxopiperidin-3-yl)-1,3-dioxoisoindolin-4-yl)amino)octyl)pyrrolidine-1-carboxamide] has a remaining binding at 10 µM [1] of 98%, a remaining binding at 10 µM [2] of 45% and a remaining binding at 10 µM [3] of 45%. It also gave a remaining binding at 10 µM [4] of 53%, a remaining binding at 10 µM [5] of 57% and a remaining binding at 10 µM [6] of 60%. The remaining binding at 10 µM [7] was 62%, the remaining binding at 10 µM [8] was 63% and the remaining binding at 10 µM [9] was 72%. The remaining binding at 10 µM [10] was 73%, the remaining binding at 10 µM [11] was 77% and the remaining binding at 10 µM [12] was 78%. It also gave a remaining binding at 10 µM [13] of 79%, a remaining binding at 10 µM [14] of 80% and a remaining binding at 10 µM [15] of 80%. For the same molecule, the remaining binding at 10 µM [16] was 82%, the remaining binding at 10 µM [17] was 82% and the remaining binding at 10 µM [18] was 83%. For the same molecule, the remaining binding at 10 µM [19] was 83%, the remaining binding at 10 µM [20] was 83% and the remaining binding at 10 µM [21] was 84%. The remaining binding at 10 µM [22] was 85%, the remaining binding at 10 µM [23] was 86% and the remaining binding at 10 µM [24] was 86%. The remaining binding at 10 µM [25] was 86%, the remaining binding at 10 µM [26] was 88% and the remaining binding at 10 µM [27] was 89%. For the same molecule, the remaining binding at 10 µM [28] was 93%, the remaining binding at 10 µM [29] was 94% and the remaining binding at 10 µM [30] was 94%. For the same molecule, the remaining binding at 10 µM [31] was 97%, the remaining binding at 10 µM [32] was 100% and the “Reduction in PAK1 levels by immunoblot” value ([33]; FIG. 2A) was ~50%. For the same molecule, the PAK1 degradation ([33]; MCF7 and OVCAR3 cells) was “induced degradation of PAK1”, the “Concentration of maximal PAK1 degradation” value ([33]; MCF7 and OVCAR3 cells, 12 hour treatment) was 10 nM and the “Time to partial degradation of PAK1” value ([33]; MCF7 cells, 250 nM, progressive loss out to 24 hours) was ≤ 4 h. For the same molecule, the “PAK1 degradation on co-treatment” value ([33]; co-treatment with bortezomib or MLN4924) was “prevented PAK1 destabilization” and the “PAK1 degradation at high concentration (hook effect)” value ([33]; concentrations of 1 μM and greater) was “diminished PAK1 degradation was observed”.
